Data on 19 compounds can be found in article PMC6331850, “Evaluation of the Cytotoxicity of Structurally Correlated p-Menthane Derivatives” (Molecules, 2015).

≈ marks a conversion by molar mass, not a printed value. A value given as a limit tells only on which side of the number the result lay.

The test system of one data set is SF-295 (glioblastoma). Kind of data set: MTT cytotoxicity assay, SF-295. It counts as cell-based. As to conditions: Homo sapiens, 25 μg/mL, 72 h incubation, mean of three independent experiments, read-out: Cell growth inhibition percentage, SF-295 IG%. The procedure:
(§1) The cytotoxicity of the 18 compounds was tested against OVCAR-8 (ovarian adenocarcinoma), HCT-116 (colon carcinoma), SF-295 (glioblastoma), and HL-60 (leukemia) human cancer cell lines, all obtained from the National Cancer Institute, Bethesda, MD, USA. Cells were grown in RPMI-1640 medium supplemented with 10% fetal bovine serum, 2 mM glutamine, 100 µg/mL streptomycin, and 100 U/mL penicillin, and incubated at 37 °C in a 5% CO2 atmosphere.
(§2) Tumor cell growth was determined by the ability of living cells to reduce the yellow dye 3-(4,5-dimethyl-2-thiazolyl)-2,5-diphenyl-2H-tetrazolium bromide (MTT; Sigma Chemical Co., St. Louis, MO, USA) to a purple formazan product, as described by Mossman. For all experiments, cells were seeded in 96-well plates (0.1 × 10^6 cells/mL in 100 μL medium). After 24 h, the 18 compounds (25 μg/mL), were dissolved in 0.7% dimethyl sulfoxide (DMSO), and were added to each well (three independent experiments, performed in triplicate). Then, the cells were incubated for 72 h at 37 °C in a 5% CO2 atmosphere. The experiment was performed as three independent experiments, using DMSO at 1%, and doxorubicin at […] as negative and positive controls, respectively. Doxorubicin, purity >98%; Sigma Chemical Co.).
(§3) At the end of incubation, the plates were centrifuged, and the medium was replaced by fresh medium (150 μL) containing 0.5 mg/mL MTT. Three hours later, the formazan product was dissolved in 150 μL DMSO, and absorbance was measured using a multiplate reader (DTX 880 Multimode Detector, Beckman Coulter Inc., Packard, ON, Canada). The treatment effects were expressed as the percentage of control absorbance of reduced dye at 595 nm. All absorbance values were converted into a cell growth inhibition percentage (GI%) by the following formula: [GI% = 100 − [(T/C) × 100%] (1) where C is the absorbance for the negative control, and T is the absorbance in the presence of the tested compound. […]

In data set [1] the test system is OVCAR-8, HCT-116, and SF-295 human tumor cell lines. The data set is described as follows: MTT cytotoxicity assay, range over the three tumor cell lines. In kind it is cell-based. Conditions: for inhibition at 25 µg/mL: read-out: GI, range over the three cell lines. The procedure:
as §1, §2
At the end of incubation, the plates were centrifuged, and the medium was replaced by fresh medium (150 μL) containing 0.5 mg/mL MTT. Three hours later, the formazan product was dissolved in 150 μL DMSO, and absorbance was measured using a multiplate reader (DTX 880 Multimode Detector, Beckman Coulter Inc., Packard, ON, Canada). The treatment effects were expressed as the percentage of control absorbance of reduced dye at 595 nm. All absorbance values were converted into a cell growth inhibition percentage (GI%) by the following formula: [GI% = 100 − [(T/C) × 100%] (1) where C is the absorbance for the negative control, and T is the absorbance in the presence of the tested compound.
The compounds that caused greater degree of cell growth inhibition and which have not been described in the literature for cytotoxic activity against tumor cell lines were evaluated for their median inhibitory concentration able to induce 50% of maximal effect (IC50). […] In addition, the IC50 was determined against HL-60 only for the most cytotoxic compound 16.

The subject of data set [2] is OVCAR-8 (ovarian adenocarcinoma). The data set is described as follows: MTT cytotoxicity assay, OVCAR-8. In kind it is cell-based. As to conditions: Homo sapiens, 25 μg/mL, 72 h incubation, mean of three independent experiments, read-out: Cell growth inhibition percentage, OVCAR-8 IG%. The procedure: as §1, §2, §3
Data set [3] deals with HCT-116 (colon carcinoma). Kind of data set: MTT cytotoxicity assay, HCT-116. In kind it is cell-based. As to conditions: Homo sapiens, 25 μg/mL, 72 h incubation, mean of three independent experiments, read-out: Cell growth inhibition percentage, HCT-116 IG%. The procedure:
as §1, §2, §3

In data set [4] the test system is HL-60 cells. The data set is described as follows: Cell viability, trypan blue dye exclusion test. It counts as cell-based, human. As to conditions: 0.32, 0.64, 1.28 µg/mL; 24 h incubation. The procedure: The cell viability was determined by the trypan blue dye exclusion test. HL-60 cells were seeded (0.3 × 10^6 cells/mL) in absence or presence of different concentrations of compound 16 (0.32, 0.64, and 1.28 µg/mL). After the incubation period of 24 h, 90 µL were removed from the cell suspension and added to 10 µL of trypan blue. Viable and non-viable cells were differentiated and counted in a Neubauer chamber.

The next data set deals with mouse erythrocytes. Kind of data set: Hemolytic assay. In kind it is cell-based. As to conditions: up to highest tested concentration 500 μg/mL; data not shown. The procedure:
The test was performed in 96-well plates using a 2% mouse erythrocyte suspension in 0.85% NaCl containing 10 mm CaCl2, following the method as described by Jimenez and collaborators. Various concentrations of compound 16 (0–500 µg/mL) were added to the suspension of red blood cells obtained from mice according to methodology adapted from Kang and collaborators, Pita and collaborators, and Bezerra and collaborators. The tubes with the compound 16 erythrocyte mixtures were incubated on a mixer for 60 min and then centrifuged at 3000 rpm for 5 min. […] After incubation at room temperature for 30 min and centrifugation, the supernatant was removed and the liberated hemoglobin was measured spectrophotometrically as the absorbance at 540 nm.

Data set [5] relates to HL-60 cells. Kind of data set: Morphological analysis by fluorescence microscopy (acridine orange/ethidium bromide). It counts as cell-based, human. Conditions: 24 h. How it is done:
HL-60 cells were pelleted and re-suspended in 20 µL of PBS. Then, 1 µL of aqueous acridine orange/ethidium bromide solution (AO/EB, 100 µg/mL) was added, and the cells were observed under a fluorescence microscope. Three hundred cells were counted per sample and classified as viable, apoptotic or necrotic.

In data set [6] the test system is HL-60 cells. The data set is described as follows: Morphological analysis with hematoxylin-eosin staining. In kind it is cell-based, human. Conditions: 0.32, 0.64, 1.28 µg/mL; 24 h incubation. How it is done: For morphological cell analysis, we used hematoxylin-eosin and examined using light microscopy. HL-60 cells were seeded (0.3 × 10^6 cells/mL) in the absence or presence of different concentrations of compound 16 (0.32, 0.64 and 1.28 µg/mL). After an incubation period of 24 h, 50 µL of cell suspension were transferred to cytospin slides, fixed with metanol for 60 s, and stained with hematoxylin-eosin [43].

A further data set concerns HL-60 (leukemia). Kind of data set: MTT cytotoxicity assay, HL-60. In kind it is cell-based. As to conditions: Homo sapiens, 72 h incubation, read-out: IC50 (95% confidence interval), HL-60. The procedure: as §1
Tumor cell growth was determined by the ability of living cells to reduce the yellow dye 3-(4,5-dimethyl-2-thiazolyl)-2,5-diphenyl-2H-tetrazolium bromide (MTT; Sigma Chemical Co., St. Louis, MO, USA) to a purple formazan product, as described by Mossman. […]
as §3

Setting [7] is: Homo sapiens, 72 h, 25 µg/mL, MTT, 72 h, HCT-116, OVCAR-8, SF-295.

On to `C=C(C)[C@@H]1CCC2(C)OC2C1` (single isomer, unassigned; (+)) [Compound 12, (+)-Limonene 1,2-epoxide], for which the inhibition at 25 µg/mL in the data set with SF-295 (glioblastoma) was 58.5%; in [1] (setting [7]), under 50%; in data set [2], 93.1%; in data set [3] it was 73.1%. The “fold more cytotoxic than 5 (GI ratio)” value in data set [1] (compared with (−)-carvone epoxide (5), 25 µg/mL) is 2.5- to 11 fold.

Regarding `CC1=CC[C@@H](C(C)(C)O)CC1O` (single isomer, unassigned; (-)) [Compound 13, (−)-Sobrerol], the figures for the inhibition at 25 µg/mL (in the data set with SF-295 (glioblastoma); in data set [2]; in [3]) were 34.2%, 41.4% and 9.78%, respectively.

For `CC1([C@@H]2CC=C(C=O)CC2)CO1` (single isomer, unassigned; (-)) [Compound 16, (−)-Perillaldehyde 8,9-epoxide], in the data set on HL-60 cells [4], the “effect on number of viable / non-viable cells” value is listed as “reduction in the number of viable cells”. For the same compound, the “hemolysis (lysis of mouse erythrocytes)” value in the data set on mouse erythrocytes is listed as “not hemolytic”. For the same compound, in the data set with HL-60 cells [5] (0.32, 0.64, 1.28 µg/mL, Figures 3 and 4), the “cell death process, three concentrations tested” value was “cell death by apoptosis”. In addition, the “cell morphology, acridine orange/ethidium bromide” value in the data set on HL-60 cells [5] (0.32, 0.64, 1.28 µg/mL, concentration-dependent, p < 0.05) was “morphology consistent with apoptosis and necrosis”. Further, the “cell death process at the higher doses” value in the data set with HL-60 cells [5] (doses of 0.64 and 1.28) was “necrotic cell death”. Moreover, the inhibition at 25 µg/mL in the data set on SF-295 (glioblastoma) is 99.9%; in data set [1] (setting [7]), 96.3 to 99.9%; in data set [2], 96.3%; in data set [3] it was 98.6%. Besides, the IC50 in data set [1] (Homo sapiens, MTT, 72 h, HCT-116, OVCAR-8, SF-295) is 1.03 to 1.75 µg/mL (≈ 6.2 to 10.5 µM); in the data set with HL-60 (leukemia), 0.64 µg/mL (≈ 3.85 µM). The “cell morphology, hematoxylin-eosin” value in the data set with HL-60 cells [6] is listed as “morphology consistent with apoptosis”.

For the compound `C=C(C)[C@@H]1CC=C(C)C(=O)C1` [Compound 1, (−)-Carvone], the inhibition at 25 µg/mL was 12.3% in the data set with SF-295 (glioblastoma), 2.28% in data set [2] and 11.9% in [3].

Regarding `C=C(C)[C@H]1CC=C(C)C(=O)C1` [Compound 2, (+)-Carvone], the inhibition at 25 µg/mL in the data set on SF-295 (glioblastoma) is 34.4%; in data set [1] (setting [7]), under 50%; in data set [2] it was 48.1%; in data set [3], 46.1%.

As for `CC1=CC[C@@H](C(C)(C)O)CC1=O` [Compound 3, (−)-8-Hydroxycarvotanacetone], the inhibition at 25 µg/mL is 61.6% in the data set with SF-295 (glioblastoma), 61.6 to 94% in [1] (setting [7]), 94% in [2] and 75.2% in data set [3]. In addition, the “GI, range over the three cell lines” value in data set [1] (25 µg/mL, MTT, 72 h, HCT-116, OVCAR-8, SF-295) is 61.59% to 94.01%.

In the case of `CC1=CC[C@H](C(C)(C)O)CC1=O` [Compound 4, (+)-8-Hydroxycarvotanacetone], the inhibition at 25 µg/mL in the data set with SF-295 (glioblastoma) was determined as 16.4%; in data set [2], 3.12%; in [3] it was 4.76%.

For the compound `C=C(C)[C@@H]1CC(=O)[C@@]2(C)O[C@H]2C1` [Compound 5, (−)-Carvone epoxide], the values for the inhibition at 25 µg/mL (with SF-295 (glioblastoma); in [2]; in data set [3]) were 10.9%, 8.21% and 29.2%, respectively.

With `C=C(C)[C@@H]1C[C@H](O)[C@]2(C)O[C@@H]2C1` [Compound 6, (+)-Carveol epoxide], the inhibition at 25 µg/mL turned out to be 35.4% in the data set on SF-295 (glioblastoma), 4.58% in [2] and 12.4% in [3].

For the compound `C=C(C)[C@@H]1CC=C(C)[C@H](O)C1` [Compound 7, (−)-cis-carveol], the figures for the inhibition at 25 µg/mL (with SF-295 (glioblastoma); in data set [2]; in [3]) were 21.2%, 3.61% and 9%, respectively.

Turning to `CC(=O)OC(C)(C)[C@@H]1CC=C(C)C(=O)C1` [Compound 8, (−)-8-Acetoxycarvotanacetone], the inhibition at 25 µg/mL was found to be 30.5% in the data set with SF-295 (glioblastoma), 1.62% in data set [2] and 10.4% in data set [3].

As to `CC(C)=C1CC[C@@H](C)CC1=O` [Compound 9, (+)-Pulegone], the results for the inhibition at 25 µg/mL (in the data set with SF-295 (glioblastoma); in data set [2]; in [3]) were 27.4%, 14.4% and 10.2%, respectively.

Take `C[C@@H]1CCC2(OC2(C)C)C(=O)C1` (stereo partly drawn) [Compound 10, (R)-pulegone oxide]: the inhibition at 25 µg/mL with SF-295 (glioblastoma) amounted to 16%; in data set [2], 17.6%; in data set [3], 43.2%.

In the case of `C=C(C)[C@@H]1CC[C@@H](C)CC1=O` [Compound 11, (−)-trans-isopulegone], the inhibition at 25 µg/mL was found to be 7.56% with SF-295 (glioblastoma), 5.98% in data set [2] and 19% in data set [3].

Turning to `C=C(C)[C@@H]1CC=C(CO)CC1` [Compound 14, (S)-(−)-perillyl alcohol], the inhibition at 25 µg/mL in the data set on SF-295 (glioblastoma) was 90.9%; in data set [1] (setting [7]), 90.9 to 95.8%; in data set [2], 91.7%; in data set [3], 95.8%.

Turning to `C=C(C)[C@@H]1CC=C(C=O)CC1` [Compound 15, (−)-Perillaldehyde], the inhibition at 25 µg/mL was 59.3% with SF-295 (glioblastoma), 59.3 to 83% in [1] (setting [7]), 70.2% in data set [2] and 83% in data set [3].

With `C=C(C)[C@@H]1CC=C(COC(C)=O)CC1` [Compound 17, (−)-Perillyl acetate], the inhibition at 25 µg/mL with SF-295 (glioblastoma) was found to be 16.4%; in data set [2] it was 3.06%; in [3], 14.2%.

`C=C(C)[C@@H]1CC=C(COC(=O)c2ccccc2)CC1` [Compound 18, (S)-perillyl benzoate]: the figures for the inhibition at 25 µg/mL (in the data set on SF-295 (glioblastoma); in data set [2]; in data set [3]) were 4.53%, 2.86% and 5.02%, respectively.

Turning to `COc1cccc2c1C(=O)c1c(O)c3c(c(O)c1C2=O)C[C@@](O)(C(=O)CO)C[C@@H]3O[C@H]1C[C@H](N)[C@H](O)[C@H](C)O1` [Doxorubicin, reference compound], the inhibition at 25 µg/mL in the data set on SF-295 (glioblastoma) is 99.6%; in [2] it was 100%; in data set [3], 99.2%.
